For one cell line, relative viability results are on record in the supplement of paper PMC10307832.

Holding throughout (experiment): relative viability (nuclei count vs DMSO), 5 days (fraction); higher = more cells survive
Compound in the test “Idelalisib + Foretinib”: CC[C@H](Nc1ncnc2[nH]cnc12)c1nc2cccc(F)c2c(=O)n1-c1ccccc1 [Idelalisib] + COc1cc2c(Oc3ccc(NC(=O)C4(C(=O)Nc5ccc(F)cc5)CC4)cc3F)ccnc2cc1OCCCN1CCOCC1 [Foretinib] (partner 0.25 µM)
The method, boiled down: (§1)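 Relative viability divides the nuclei count in treated wells by that in vehicle wells. Lung cancer cell lines were seeded in 1536-well plates, dosed by pin tool the next day, and fixed and stained after 5 days in one step with final 0.05% Triton X-100, 1% formaldehyde and 1 ug/ml Hoechst. Dosing was a single drug or a fixed anchor-drug dose plus five library-drug doses (not always all listed) in √10 steps, and values are medians of duplicate plates imaged at 4×.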

Compound in the test “Pemetrexed + Palbociclib”: Nc1nc2[nH]cc(CCc3ccc(C(=O)N[C@@H](CCC(=O)O)C(=O)O)cc3)c2c(=O)[nH]1 [Pemetrexed] + CC(=O)c1c(C)c2cnc(Nc3ccc(N4CCNCC4)cn3)nc2n(C2CCCC2)c1=O [Palbociclib] (partner 0.5 µM)
The method, boiled down:
as §1

Compound in the test “Idelalisib + Lapatinib”: CC[C@H](Nc1ncnc2[nH]cnc12)c1nc2cccc(F)c2c(=O)n1-c1ccccc1 [Idelalisib] + CS(=O)(=O)CCNCc1ccc(-c2ccc3ncnc(Nc4ccc(OCc5cccc(F)c5)c(Cl)c4)c3c2)o1 [Lapatinib] (partner 2 µM)
The method, boiled down: as §1

Compound in the test “Idelalisib + Bortezomib”: CC[C@H](Nc1ncnc2[nH]cnc12)c1nc2cccc(F)c2c(=O)n1-c1ccccc1 [Idelalisib] + CC(C)C[C@H](NC(=O)[C@H](Cc1ccccc1)NC(=O)c1cnccn1)B(O)O [Bortezomib] (partner 0.002 µM)
The method, boiled down:
as §1

On to UMC-11, for which the relative viability in the test with Idelalisib + Foretinib (first compound 0.04 µM) turned out to be 0.957; with Idelalisib + Foretinib (first compound 0.1265 µM) it was 1.07; with Idelalisib + Foretinib (first compound 0.4 µM) it was 0.988; in the test with Idelalisib + Foretinib (first compound 1.265 µM), 1.03; with Idelalisib + Foretinib (first compound 4 µM), 1.09; with Pemetrexed + Palbociclib (first compound 0.002 µM), 0.344. Also, the relative viability amounted to 0.322 with Pemetrexed + Palbociclib (first compound 0.006325 µM); 0.343 with Pemetrexed + Palbociclib (first compound 0.02 µM); 0.342 in the test with Pemetrexed + Palbociclib (first compound 0.06325 µM); 0.357 in the test with Pemetrexed + Palbociclib (first compound 0.2 µM); 1 in the test with Idelalisib + Lapatinib (first compound 0.04 µM); 1.02 in the test with Idelalisib + Lapatinib (first compound 0.1265 µM). Besides, the relative viability with Idelalisib + Lapatinib (first compound 0.4 µM) was determined as 0.985; with Idelalisib + Lapatinib (first compound 1.265 µM), 1.14; in the test with Idelalisib + Lapatinib (first compound 4 µM), 0.976; with Idelalisib + Bortezomib (first compound 0.04 µM) it was 0.477; in the test with Idelalisib + Bortezomib (first compound 0.1265 µM) it was 0.858; with Idelalisib + Bortezomib (first compound 0.4 µM), 0.744. Further, the results for the relative viability with Idelalisib + Bortezomib (first compound 1.265 µM) and with Idelalisib + Bortezomib (first compound 4 µM) were 0.771 and 0.521, respectively.
